Consider 39 compounds from patent publication US6900219B2, “ABCA-1 elevating compounds” (CV Therapeutics, Inc., priority 2002, dated 2005).

This test deals with ABCA-1 gene. The experiment in a line: compounds tested and found to elevate cellular expression of the ABCA-1 gene (Examples 1-6; test not named). It counts as cell-based. On the procedure: Activity testing is conducted as described in those patents and patent applications referenced above, and in the Examples below, and by methods apparent to one skilled in the art.
On to `O=C(NCCc1ccccc1F)c1ccc2oc(N3CCCN(C(=O)Cc4ccc(C(F)(F)F)cc4)CC3)nc2c1` [N-[2-(2-fluorophenyl)ethyl][2-(4-{2-[4-(trifluoromethyl)phenyl]acetyl}(1,4-diazaperhydroepinyl))benzoxazol-5-yl]carboxamide], for which the “cellular expression of the ABCA-1 gene” value is “elevate cellular expression of the ABCA-1 gene”. Under `O=C(NCCc1ccccc1F)c1ccc2oc(N3CCCN(C(=O)CCc4c[nH]c5ccccc45)CC3)nc2c1` [N-[2-(2-fluorophenyl)ethyl]{2-[4-(3-indol-3-ylpropanoyl)(1,4-diazaperhydroepinyl)]benzoxazol-5-yl}carboxamide] stands “elevate cellular expression of the ABCA-1 gene”. The same measure for `COc1ccc(CCN(Cc2ccc(C(C)(C)C)cc2)C(=O)c2ccco2)cc1OC` [N-[2-(3,4-dimethoxyphenyl)ethyl]-N-{[4-(tert-butyl)phenyl]methyl}-2-furylcarboxamide]: “elevate cellular expression of the ABCA-1 gene”; for `COc1ccc(CN(CCc2ccc(OC)c(OC)c2)C(=O)C2CC2)cc1` [N-[2-(3,4-dimethoxyphenyl)ethyl]cyclopropyl-N-[(4-methoxyphenyl)methyl]-carboxamide]: “elevate cellular expression of the ABCA-1 gene”; for `O=C(CNC(=O)c1ccccc1F)c1ccc(Cl)cc1` [N-[2-(4-chlorophenyl)-2-oxoethyl](2-fluorophenyl)carboxamide]: “elevate cellular expression of the ABCA-1 gene”. Consider `CC(c1nc2ccccc2c(=O)n1-c1ccc2ccccc2c1)N(CCN(C)C)C(=O)Nc1cccc(C#N)c1` (stereo not drawn) [N-[2-(dimethylamino)ethyl][(3-cyanophenyl)amino]-N-[(3-(2-naphthyl)-4-oxo(3-hydroquinazolin-2-yl))ethyl]carboxamide], for which the “cellular expression of the ABCA-1 gene” value is recorded as “elevate cellular expression of the ABCA-1 gene”. Under `COc1cccc(NC(=O)N(CCN(C)C)C(C)c2nc3ccccc3c(=O)n2-c2ccc3ccccc3c2)c1` (stereo not drawn) [N-[2-(dimethylamino)ethyl][(3-methoxyphenyl)amino]-N-[(3-(2-naphthyl)-4-oxo(3-hydroquinazolin-2-yl))ethyl]carboxamide] stands “elevate cellular expression of the ABCA-1 gene”; under `O=C(Nc1nc(-c2ccc(Cl)cc2)cs1)c1ccc(-c2ccccc2)cc1` [N-[4-(4-chlorophenyl)(1,3-thiazol-2-yl)](4-phenylphenyl)carboxamide], “elevate cellular expression of the ABCA-1 gene”; under `O=C(Nc1nc(-c2ccc(Cl)cc2)cs1)c1ccc(C(F)(F)F)cc1F` [N-[4-(4-chlorophenyl)(1,3-thiazol-2-yl)][2-fluoro-4-(trifluoromethyl)phenyl]-carboxamide], “elevate cellular expression of the ABCA-1 gene”. Under `O=C(Nc1nc(-c2ccc(Cl)cc2)cs1)c1cccc(C(F)(F)F)c1` [N-[4-(4-chlorophenyl)(1,3-thiazol-2-yl)][3-(trifluoromethyl)phenyl]carboxamide] stands “elevate cellular expression of the ABCA-1 gene”; under `O=C(Nc1nc(-c2ccc(Cl)cc2)cs1)c1ccc(OC(F)(F)F)cc1` [N-[4-(4-chlorophenyl)(1,3-thiazol-2-yl)][4-(trifluoromethoxy)phenyl]carboxamide], “elevate cellular expression of the ABCA-1 gene”. The same measure for `O=C(Nc1nc(-c2ccc(Cl)cc2)cs1)C1CCCC1` [N-[4-(4-chlorophenyl)(1,3-thiazol-2-yl)]cyclopentylcarboxamide]: “elevate cellular expression of the ABCA-1 gene”; for `Cc1cc(C)c2oc(-c3ccc(NC(=O)c4ccccc4Br)cc3)nc2c1` [N-[4-(5,7-dimethylbenzoxazol-2-yl)phenyl](2-bromophenyl)carboxamide]: “elevate cellular expression of the ABCA-1 gene”; for `Cc1ccc2nc(-c3ccc(NC(=O)c4ccccc4C)cc3)sc2c1` [N-[4-(6-methylbenzothiazol-2-yl)phenyl](2-methylphenyl)carboxamide]: “elevate cellular expression of the ABCA-1 gene”. On to `Cc1ccc2nc(-c3ccc(NC(=O)Cc4cccs4)cc3)sc2c1` [N-[4-(6-methylbenzothiazol-2-yl)phenyl]-2-(2-thienyl)acetamide], for which the “cellular expression of the ABCA-1 gene” value is listed as “elevate cellular expression of the ABCA-1 gene”. The same measure for `CCN(CC)CCCC(C)NC(=O)c1cnn(-c2nc(-c3cccc(OC)c3)cs2)c1C` (stereo not drawn) [N-[4-(diethylamino)-1-methylbutyl]{1-[4-(3-methoxyphenyl)(1,3-thiazol-2-yl)]-5-methylpyrazol-4-yl}carboxamide]: “elevate cellular expression of the ABCA-1 gene”. With `CCc1c(C(=O)NC(C)CCCN(CC)CC)cnn1-c1nc(-c2ccc(Br)cc2)cs1` (stereo not drawn) [N-[4-(diethylamino)-1-methylbutyl]{1-[4-(4-bromophenyl)(1,3-thiazol-2-yl)]-5-ethylpyrazol-4-yl}carboxamide], the “cellular expression of the ABCA-1 gene” value is “elevate cellular expression of the ABCA-1 gene”. As to `CC(=O)Nc1ccc(N=Nc2ccccc2)cc1` [N-[4-(phenyldiazenyl)phenyl]acetamide], the “cellular expression of the ABCA-1 gene” value is listed as “elevate cellular expression of the ABCA-1 gene”. Under `O=C(Nc1ncc(-c2ccccc2Cl)s1)c1ccco1` [N-[5-(2-chlorophenyl)(1,3-thiazol-2-yl)]-2-furylcarboxamide] stands “elevate cellular expression of the ABCA-1 gene”; under `O=C(Nc1ncc(-c2ccccc2Cl)s1)C1CC1` [N-[5-(2-chlorophenyl)(1,3-thiazol-2-yl)]cyclopropylcarboxamide], “elevate cellular expression of the ABCA-1 gene”; under `O=C(Nc1ncc(-c2ccc(F)cc2)s1)c1ccco1` [N-[5-(4-fluorophenyl)(1,3-thiazol-2-yl)]-2-furylcarboxamide], “elevate cellular expression of the ABCA-1 gene”. `O=C(Nc1ncc(-c2ccc(F)cc2)s1)c1cccs1` [N-[5-(4-fluorophenyl)(1,3-thiazol-2-yl)]-2-thienylcarboxamide]: the “cellular expression of the ABCA-1 gene” value is on record as “elevate cellular expression of the ABCA-1 gene”.

Take `CC(C)(C)c1cc(NC(=O)C(C)(C)S(=O)(=O)c2ccc(C(F)(F)F)cc2)no1` [N-[5-(tert-butyl)isoxazol-3-yl]-2-methyl-2-{[4-(trifluoromethyl)phenyl]sulfonyl}-propanamide]: the “cellular expression of the ABCA-1 gene” value is “elevate cellular expression of the ABCA-1 gene”. On to `CS(=O)(=O)c1ccc2nc(NC(=O)c3cccs3)sc2c1` [N-[6-(methylsulfonyl)benzothiazol-2-yl]-2-thienylcarboxamide], for which the “cellular expression of the ABCA-1 gene” value is on record as “elevate cellular expression of the ABCA-1 gene”. Under `CCc1c(C(=O)NC23CC4CC(CC(C4)C2)C3)cnn1-c1nc(-c2ccc(C)cc2)cs1` [N-adamantanyl {5-ethyl-1-[4-(4-methylphenyl)(1,3-thiazol-2-yl)]pyrazol-4-yl}carboxamide] stands “elevate cellular expression of the ABCA-1 gene”; under `O=C(Nc1nc2ccccc2s1)c1sc2ccccc2c1Cl` [N-benzothiazol-2-yl(3-chlorobenzo[b]thiophen-2-yl)carboxamide], “elevate cellular expression of the ABCA-1 gene”; under `N#Cc1cccc(C(=O)Nc2nc3ccccc3s2)c1` [N-benzothiazol-2-yl(3-cyanophenyl)carboxamide], “elevate cellular expression of the ABCA-1 gene”. The same measure for `O=C(Nc1nc2ccccc2s1)c1cccc(F)c1` [N-benzothiazol-2-yl(3-fluorophenyl)carboxamide]: “elevate cellular expression of the ABCA-1 gene”; for `N#Cc1ccc(C(=O)Nc2nc3ccccc3s2)cc1` [N-benzothiazol-2-yl(4-cyanophenyl)carboxamide]: “elevate cellular expression of the ABCA-1 gene”. The same measure for `CCCCNC(=O)Nc1nc2ccccc2s1` [N-benzothiazol-2-yl(butylamino)carboxamide]: “elevate cellular expression of the ABCA-1 gene”. For the compound `CCCNC(=O)Nc1nc2ccccc2s1` [N-benzothiazol-2-yl(propylamino)carboxamide], the “cellular expression of the ABCA-1 gene” value is “elevate cellular expression of the ABCA-1 gene”. The same measure for `CC(C)(C)NC(=O)Nc1nc2ccccc2s1` [N-benzothiazol-2-yl(tert-butylamino)carboxamide]: “elevate cellular expression of the ABCA-1 gene”; for `O=C(Cc1cccs1)Nc1nc2ccccc2s1` [N-benzothiazol-2-yl-2-(2-thienyl)acetamide]: “elevate cellular expression of the ABCA-1 gene”; for `N#Cc1c(C(F)(F)F)cc(-c2cccs2)nc1SCC(=O)Nc1nc2ccccc2s1` [N-benzothiazol-2-yl-2-[3-cyano-6-(2-thienyl)-4-(trifluoromethyl)(2-pyridylthio)]acetamide]: “elevate cellular expression of the ABCA-1 gene”.

As for `O=C(Nc1nc2ccccc2s1)c1ccco1` [N-benzothiazol-2-yl-2-furylcarboxamide], the “cellular expression of the ABCA-1 gene” value was “elevate cellular expression of the ABCA-1 gene”. Under `O=C(Nc1nc2ccccc2s1)c1ccccn1` [N-benzothiazol-2-yl-2-pyridylcarboxamide] stands “elevate cellular expression of the ABCA-1 gene”; under `O=C(Nc1nc2ccccc2s1)c1cccs1` [N-benzothiazol-2-yl-2-thienylcarboxamide], “elevate cellular expression of the ABCA-1 gene”; under `O=C(CCC1CCCC1)Nc1nc2ccccc2s1` [N-benzothiazol-2-yl-3-cyclopentylpropanamide], “elevate cellular expression of the ABCA-1 gene”.

In the case of `O=C(Nc1nc2ccccc2s1)c1ccncc1` [N-benzothiazol-2-yl-4-pyridylcarboxamide], the “cellular expression of the ABCA-1 gene” value is listed as “elevate cellular expression of the ABCA-1 gene”.
